The values below come from US8299056B2 (Signal Pharmaceuticals, LLC, priority 2008, dated 2012).

The structures appear in SMILES notation.

As usually defined, the IC50 is the concentration that gives 50% inhibition.

For the experiment, the target named is T1, Syk (Homo sapiens, UniProt P43405).
T1 construct: purchased Carna Biosciences
Nature of the experiment: Syk HTRF assay. Type of experiment: biochemical. As to conditions: read-out: Activity Level (Syk HTRF assay IC50). A digest of the protocol:
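HTRF kinase assay in HEPES pH 7.6 buffer with MgCl2, DTT and Triton X100; start mix of 87.5 μM ATP and 80 nM biotinylated peptide, 1 h at room temperature. EDTA stop, then Eu-anti-phosphotyrosine/streptavidin-DyLight 647 detection, read as 665/615 nm emission ratio.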
(TR-FRET usually uses a lanthanide donor and a delayed reading to cut background.)
On to `CC1(C)C(=O)Nc2cc(Nc3nc4cccc(Cc5cc[nH]c(=O)c5)n4n3)ccc21` [Example 156, 3,3-dimethyl-6-(5-((2-oxo-1,2-dihydropyridin-4-yl)methyl)-[1,2,4]triazolo[1,5-a]pyridin-2-ylamino)indolin-2-one], for which the 50% inhibitory concentration (IC50) was 0.005 to 250 nM.

Regarding `O=C1NCc2cc(Nc3nc4cccc(Cc5ccnc(O)c5)n4n3)ccc21` [Example 157, 5-(5-((2-hydroxypyridin-4-yl)methyl)-[1,2,4]triazolo[1,5-a]pyridin-2-ylamino)isoindolin-1-one], the IC50 was 0.005 to 250 nM.

Regarding `CN(c1cccc2nc(Nc3ccc4c(c3)NC(=O)C4(C)C)nn12)C1CCOCC1` [Example 158, 3,3-dimethyl-6-(5-(methyl(tetrahydro-2H-pyran-4-yl)amino)-[1,2,4]triazolo[1,5-a]pyridin-2-ylamino)indolin-2-one], the IC50 fell in the range of 0.005 to 250 nM. For the compound `CC(c1cccc2nc(Nc3ccc4c(c3)NC(=O)C4(C)C)nn12)C1CCOCC1` (stereo not drawn) [Example 159, 3,3-dimethyl-6-(5-(1-(tetrahydro-2H-pyran-4-yl)ethyl)-[1,2,4]triazolo[1,5-a]pyridin-2-ylamino)indolin-2-one], the IC50 lay in the range of 0.005 to 250 nM. For `Cn1ncc2ccc(Nc3nc4cccc(CC5CCOCC5)n4n3)cc21` [Example 160, N-(1-methyl-1H-indazol-6-yl)-5-((tetrahydro-2H-pyran-4-yl)methyl)-[1,2,4]triazolo[1,5-a]pyridin-2-amine], the IC50 was in the range of 0.005 to 250 nM.

Turning to `Cn1ncc2ccc(Nc3nc4cccc(NC5CCOCC5)n4n3)cc21` [Example 161, N^2-(1-methyl-1H-indazol-6-yl)-N^5-(tetrahydro-2H-pyran-4-yl)-[1,2,4]triazolo[1,5-a]pyridin-2,5-diamine], the IC50 was 0.005 to 250 nM. Take `CC1(C)C(=O)Nc2cc(Nc3nc4cccc(N[C@H]5CC[C@](C)(O)CC5)n4n3)ccc21` [Example 162, trans-6-(5-(4-hydroxy-4-methylcyclohexylamino)-[1,2,4]triazolo[1,5-a]pyridin-2-ylamino)-3,3-dimethylindolin-2-one]: the IC50 fell in the range of 0.005 to 250 nM. In the case of `CC1(C)C(=O)Nc2cc(Nc3nc4cccc(N[C@H]5CC[C@@](C)(O)CC5)n4n3)ccc21` [Example 163, cis-6-(5-(4-hydroxy-4-methylcyclohexylamino)-[1,2,4]triazolo[1,5-a]pyridin-2-ylamino)-3,3-dimethylindolin-2-one] it was 0.005 to 250 nM. Regarding `Cc1n[nH]c2cc(Nc3nc4cccc(N[C@H]5CC[C@@H](O)CC5)n4n3)cc(F)c12` [Example 164, cis-4-(2-(4-fluoro-3-methyl-1H-indazol-6-ylamino)-[1,2,4]triazolo[1,5-a]pyridin-5-ylamino)cyclohexanol], the IC50 was in the range of 0.005 to 250 nM.

Turning to `CC1(C)C(=O)Nc2cc(Nc3nc4cccc(OC5CCOCC5)n4n3)ccc21` [Example 168, 3,3-dimethyl-6-(5-(tetrahydro-2H-pyran-4-yloxy)-[1,2,4]triazolo[1,5-a]pyridin-2-ylamino)indolin-2-one], the IC50 lay within 0.005 to 250 nM. Regarding `Cc1n[nH]c2cc(Nc3nc4cccc(CN5CC(C)(O)C5)n4n3)ccc12` [Example 169, 3-methyl-1-((2-(3-methyl-1H-indazol-6-ylamino)-[1,2,4]triazolo[1,5-a]pyridin-5-yl)methyl)azetidin-3-ol], the IC50 fell in the range of 250 to 500 nM. With `CC1(C)C(=O)Nc2cc(Nc3nc4cccc(N5CC(O)C5)n4n3)ccc21` [Example 170, 6-(5-(3-hydroxyazetidin-1-yl)-[1,2,4]triazolo[1,5-a]pyridin-2-ylamino)-3,3-dimethylindolin-2-one], the IC50 fell in the range of 0.005 to 250 nM. In the case of `CC1(O)CN(c2cccc3nc(Nc4ccc5c(c4)NC(=O)C5(C)C)nn23)C1` [Example 171, 6-(5-(3-hydroxy-3-methylazetidin-1-yl)-[1,2,4]triazolo[1,5-a]pyridin-2-ylamino)-3,3-dimethylindolin-2-one], the IC50 was in the range of 0.005 to 250 nM.

Regarding `CC1(C)C(=O)Nc2cc(Nc3nc4cccc(CN5CCNC(=O)C5)n4n3)ccc21` [Example 172, 3,3-dimethyl-6-(5-((3-oxopiperazin-1-yl)methyl)-[1,2,4]triazolo[1,5-a]pyridin-2-ylamino)indolin-2-one], the concentration for half-maximal inhibition (IC50) is 0.005 to 250 nM. On to `CC1(C)C(=O)Nc2cc(Nc3nc4cccc(C(O)C5CCOCC5)n4n3)ccc21` (stereo not drawn) [Example 173, 6-(5-(hydroxy(tetrahydro-2H-pyran-4-yl)methyl)-[1,2,4]triazolo[1,5-a]pyridin-2-ylamino)-3,3-dimethylindolin-2-one], for which the IC50 was in the range of 250 to 500 nM. With `COCCN1Cc2cc(Nc3nc4cccc(N[C@H]5CC[C@@H](O)CC5)n4n3)ccc2C1=O` [Example 174, cis-5-(5-(4-hydroxycyclohexylamino)-[1,2,4]triazolo[1,5-a]pyridin-2-ylamino)-2-(2-methoxyethyl)isoindolin-1-one], the IC50 is 0.005 to 250 nM. As for `CC1(C)C(=O)Nc2cc(Nc3nc4cccc(CC5CCOCC5)n4n3)ccc21` [Example 176, 3,3-dimethyl-6-(5-((tetrahydro-2H-pyran-4-yl)methyl)-[1,2,4]triazolo[1,5-a]pyridin-2-ylamino)indolin-2-one], the IC50 is 0.005 to 250 nM. As for `CC1(C)C(=O)Nc2cc(Nc3nc4cccc(NC5CCOCC5)n4n3)ccc21` [Example 177, 3,3-dimethyl-6-(5-(tetrahydro-2H-pyran-4-ylamino)-[1,2,4]triazolo[1,5-a]pyridin-2-ylamino)indolin-2-one], the IC50 was in the range of 0.005 to 250 nM.

Regarding `Cc1n[nH]c2cc(Nc3nc4cccc(NC[C@@H]5CC[C@H](O)C5)n4n3)ccc12` [Example 178, (1S,3R)-3-((2-(3-methyl-1H-indazol-6-ylamino)-[1,2,4]triazolo[1,5-a]pyridin-5-ylamino)methyl)cyclopentanol], the IC50 fell in the range of 0.005 to 250 nM. As to `Cc1n[nH]c2cc(Nc3nc4cccc(NC[C@H]5CC[C@H](O)C5)n4n3)ccc12` [Example 181, (1S,3S)-3-((2-(3-methyl-1H-indazol-6-ylamino)-[1,2,4]triazolo[1,5-a]pyridin-5-ylamino)methyl)cyclopentanol], the IC50 lay in the range of 0.005 to 250 nM. In the case of `Cc1n[nH]c2cc(Nc3nc4cccc(N[C@H]5CCOC5)n4n3)ccc12` [Example 182, (S)-N^2-(3-methyl-1H-indazol-6-yl)-N^5-(tetrahydrofuran-3-yl)-[1,2,4]triazolo[1,5-a]pyridin-2,5-diamine] it was 250 to 500 nM. In the case of `Cc1n[nH]c2cc(Nc3nc4cccc(Cc5cc[nH]c(=O)c5)n4n3)ccc12` [Example 183, 4-((2-(3-methyl-1H-indazol-6-ylamino)-[1,2,4]triazolo[1,5-a]pyridin-5-yl)methyl)pyridin-2(1H)-one], the IC50 lay within 0.005 to 250 nM.

Turning to `Cc1n[nH]c2cc(Nc3nc4cccc(CN5CCCC(F)(F)C5)n4n3)ccc12` [Example 184, 5-((3,3-difluoropiperidin-1-yl)methyl)-N-(3-methyl-1H-indazol-6-yl)-[1,2,4]triazolo[1,5-a]pyridin-2-amine], the IC50 is 0.005 to 250 nM.

In the case of `O=C1Cc2ccc(Nc3nc4cccc(N[C@H]5CC[C@@H](O)CC5)n4n3)cc2N1CCO` [Example 185, cis-6-(5-(4-hydroxycyclohexylamino)-[1,2,4]triazolo[1,5-a]pyridin-2-ylamino)-1-(2-hydroxyethyl)indolin-2-one], the IC50 lay within 250 to 500 nM.

Turning to `Cc1n[nH]c2cc(Nc3nc4cccc(CNCC(N)=O)n4n3)ccc12` [Example 186, 2-((2-(3-methyl-1H-indazol-6-ylamino)-[1,2,4]triazolo[1,5-a]pyridin-5-yl)methylamino)acetamide], the IC50 was in the range of 0.005 to 250 nM.

As to `COC[C@]1(O)CC[C@@H](Cc2cccc3nc(Nc4ccc(C(F)(F)F)cc4)nn23)CC1` [Example 187, cis-1-(methoxymethyl)-4-((2-(4-(trifluoromethyl)phenylamino)-[1,2,4]triazolo[1,5-a]pyridin-5-yl)methyl)cyclohexanol], the IC50 is 500 to 1000 nM. Consider `CC(C)n1ncc2ccc(Nc3nc4cccc(CN5CCNC(=O)C5)n4n3)cc21` [Example 188, 4-((2-(1-isopropyl-1H-indazol-6-ylamino)-[1,2,4]triazolo[1,5-a]pyridin-5-yl)methyl)piperazin-2-one], for which the IC50 was in the range of 0.005 to 250 nM.

`Cc1n[nH]c2cc(Nc3nc4cccc(N(C)C5CCOCC5)n4n3)ccc12` [Example 189, N^5-methyl-N^2-(3-methyl-1H-indazol-6-yl)-N^5-(tetrahydro-2H-pyran-4-yl)-[1,2,4]triazolo[1,5-a]pyridin-2,5-diamine]: the half-maximal inhibitory concentration (IC50) was 0.005 to 250 nM.

Regarding `Cc1n[nH]c2cc(Nc3nc4cccc(N(C)CCO)n4n3)ccc12` [Example 190, 2-(methyl(2-(3-methyl-1H-indazol-6-ylamino)-[1,2,4]triazolo[1,5-a]pyridin-5-yl)amino)ethanol], the IC50 fell in the range of 0.005 to 250 nM.

As for `Cc1nn(CCO)c2cc(Nc3nc4cccc(N[C@H]5CC[C@@H](O)CC5)n4n3)ccc12` [Example 191, cis-4-(2-(1-(2-hydroxyethyl)-3-methyl-1H-indazol-6-ylamino)-[1,2,4]triazolo[1,5-a]pyridin-5-ylamino)cyclohexanol], the IC50 was 0.005 to 250 nM. Turning to `CN1C(=O)Cc2ccc(Nc3nc4cccc(N[C@H]5CC[C@@H](O)CC5)n4n3)cc21` [Example 192, cis-6-(5-(4-hydroxycyclohexylamino)-[1,2,4]triazolo[1,5-a]pyridin-2-ylamino)-1-methylindolin-2-one], the IC50 lay within 0.005 to 250 nM.

Regarding `O=c1cc(C(O)c2cccc3nc(Nc4ccc(C(F)(F)F)cc4)nn23)nc[nH]1` (stereo not drawn) [Example 193, 6-(hydroxy(2-(4-(trifluoromethyl)phenylamino)-[1,2,4]triazolo[1,5-a]pyridin-5-yl)methyl)pyrimidin-4(3H)-one], the IC50 fell in the range of 0.005 to 250 nM. In the case of `COCCn1nc(C)c2ccc(Nc3nc4cccc(N[C@H]5CC[C@@H](O)CC5)n4n3)cc21` [Example 194, cis-4-(2-(1-(2-methoxyethyl)-3-methyl-1H-indazol-6-ylamino)-[1,2,4]triazolo[1,5-a]pyridin-5-ylamino)cyclohexanol] it was 250 to 500 nM.
